Columns and labels:
[1] = ROS generation measurement with ABDA indicator under white light; conditions: 1 μM sample, 10 μM ABDA, DMSO/water 1/100, white light 4.2 mW·cm^−2, up to 6 min; compared with Ce6 and Rose Bengal
Experimental: 9,10-Anthracenediyl-bis(methylene)dimalonic acid (ABDA) was employed to detect ROS generation of TFPy, TFVP, TPE-TFPy, and two commercial standard photosensitizer, Rose Bengal, and Ce6 upon light irradiation. The absorbance of each sample (1 μM) was firstly set as blank. Then, 10 μM of ABDA was mixed to each sample (DMSO/water (v:v)=1/100) in a dark room, and the absorbance of sample was measured at once. The sample mixture was then irradiated under white light (4.2 mW/cm^−2) at intervals of 1 min until 6 min. The absorption of ABDA at 378 nm was recorded at various irradiation times to obtain the decay rate of photosensitizing process. The absorbance change of ABDA alone in 6 min light irradiation time was also measured as control.
Preliminary study was conducted by evaluating capability of ROS generation of three AIEgens. 9,10-Anthracenediyl-bis-(methylene)-dimalonic acid (ABDA) whose absorption will decrease once oxidized by ROS was utilized as an indicator. […] Ce6 and Rose Bangel, two well-known commercially available standard photosensitizers, were engaged as comparison.

[2] = UV-Vis and photoluminescence spectroscopy (optical properties, AIE characteristics); format: physicochemical; conditions: for λabs: Absorption maximum in DMSO (TFPy and TPE-TFPy) and H2O (TFVP) solution, 10 μM; for λem (Soln.): Emission maximum in DMSO (TFPy and TPE-TFPy) and H2O (TFVP) solution at 10 μM; for ΦF (Aggr.) / ΦF (Soln.) / ΦF (Solid.): Fluorescence quantum yield; for ΦF (Aggr.): aggregation state in 5% DMSO + 95% Toluene or 5% H2O + 95% THF (TFVP); for ΦF (Soln.): calibrated integrating sphere, DMSO (TFPy, TPE-TFPy) or H2O (TFVP) solution; for ΦF (Solid.) / stokes shifts / λem (Solid.): solid state; for λem (Aggr.): aggregation state in 5% DMSO + 95% Toluene (TFPy and TPE-TFPy) or 5% H2O + 95% THF (TFVP); for Iaggr,max/Isoln: emission intensity in 5% DMSO + 95% Toluene (TFPy, TPE-TFPy) or 5% H2O + 95% THF (TFVP) relative to solution; for ε: solution
Excerpt: All the chemicals were purchased from Meryer, J&K, or Sigma as received without further purification. Superdry (99.9%) DCM and methanol with molecular sieves were purchased from J&K Scientific. Toluene was distilled from sodium and benzophenone under nitrogen prior to use. Phosphate buffered saline (PBS) was purchased from Thermo Fisher Scientific. ABDA, Ce6 and Rose Bengal were purchased from Sigma-Aldrich and used as received. Cell culture medium and fetal bovine serum (FBS) were purchased from GIBCO (Gran Island, NY, USA). Mitotracker Green, CellMask Green, and LysoTracker Green were purchased from ThermoFisherScientific. 1H NMR (400 MHz), 13C NMR (100 MHz) spectra were recorded on a Bruker ARX 400 Spectrometer with CDCl3 or d6-DMSO as deuterated solvent. High resolution mass spectra (HRMS) were performed on a Finnigan MAT TAQ 7000 mass spectrometer system operating in matrix-assisted laser desorption/ionization time of flight mass spectrometry (MALDI-TOF) mode. UV-Vis absorption and fluorescence spectra were recorded with Milton Roy Spectronic 3000 array spectrophotometer. Fluorescence images of AIEgens in solution and aggregation state were collected on an Olympus BX 41 fluorescence microscope. Cellular fluorescence images were taken using a Zeiss laser scanning confocal microscope (LSM7 DUO) and analyzed using ZEN 2009 software (Carl Zeiss). Theoretical study was carried out on 6-311G* basis set in Gaussian09 using density functional theory (DFT) approximated by ωB97X-D.
The photophysical properties of TFPy, TFVP and TPE-TFPy were characterized by UV-Vis and photoluminescence spectroscopies at the concentration of 10 μM as shown in FIG. 2 and summarized in Table 1. […] Due to different solubility behavior, the AIE characteristics of TFPy and TPE-TFPy were investigated in DMSO/toluene mixture with different toluene fractions, whereas TFVP was measured in H2O/THF mixture (FIGS. 2C and 2D, FIG. 8). Taking TFVP as an example, TFVP was barely emissive when fully dissolved in water. Upon increasing THF fraction, fluorescence emission intensity got boosted accordingly with a 218-time increment when THF fraction reached 95%. […] In addition, upon the increase of THF or toluene as poor solvent, the emission wavelengths of three AIEgens were blue-shifted owing to the decrease of solvent polarity, manifesting TICT attributes, which is again ascribed to their D-A feature.

HeLa cell = assay: MTT cytotoxicity / PDT assay, HeLa cell line; format: cell-based; conditions: 5 μM, white light 20 min (20 mW/cm^2)
Experimental: 3-(4,5-Dimethylthiazol-2-yl)-2,5-diphenyltetrazolium bromide (MTT) assay was utilized to quantitatively measure the cytotoxicity of TFPy, TFVP, TPE-TFPy, and three in one group based on both Hela cell line and 4T1 cell line. The three in one group was consist of one third concentration of TFPy, TFVP, and TPE-TFPY. Both cancer cell lines were seeded in DMEM media in a 96-well round-bottom microplate with a density of 1×10^4 cells per well. The AIEgens (TFPy, TFVP, TPE-TFPy, and three in one) were added at different concentrations of 0, 0.25, 0.5, 1, 2.5, and 5 μM after replacing the medium, and was incubated with different cell lines respectively for 20 min, followed by irradiation with white light for 20 min (20 mW/cm^2); and another array of plates with cells were kept in the dark as control. After 24 h incubation, 10 uL MTT (5 mg/mL in PBS) was added into each well. 4 hours later, DMSO was added into wells to dissolve the precipitated formazan. Finally, the absorption of each well at 595 nm was recorded via a plate reader (Perkin-Elmer Victor3™). Each trial was performed with 6 wells in parallel.
Cytotoxicity of photosensitizer is a non-negligible factor to take into consideration. […] Consequently, quantitative evaluation of PDT effect was applied on both HeLa Cell and 4T1 cell line through standard methylthiazolyldiphenyltetrazolium bromide (MTT) assay. Each AIEgen and an experimental group named “three in one” were evaluated. The “three in one” group was comprised of one third concentration of each AIEgen (⅓ TFPy, ⅓ TFVP, and ⅓ TPE-TFPy) to assure the overall concentration as same as other experimental groups. […] However, upon irradiation with light for 20 min, HeLa cell suffered severe viability loss with only 10% remained when the “three in one” group was at a concentration of 2.5 μM (FIG. 5C).

HeLa cells = assay: HeLa cell imaging / co-localization with commercial organelle probes (CLSM); format: cell-based; conditions: for subcellular organelle visualized after incubation: CLSM, excitation 488 nm; for Pearson's coefficient (co-localization efficiency): co-staining with MitoTracker Green (TFPy), CellMask Green (TFVP), LysoTracker Green (TPE-TFPy)
Experimental: Hela cells were seeded and cultured at 37° C. in a 35 mm glass-bottomed dish. After incubation with TFPy (1 μM), TFVP (5 μM), or TPE-TFPy (2 μM), the cells were washed with PBS three times and subjected to imaging analysis using a Zeiss Laser Scanning Confocal Microscope. All of three AIEgens can be excited with 488 nm filter and the emission filter was 570-740 nm. For co-staining assay, the TFPy, TFVP, and TPE-TFPy loaded Hela cells were subjected to incubation with MitoTracker Green, CellMask Green, and LysoTracker Green, respectively. Hoechst 33258 (5 μM) was also utilized to stain nuclear DNA to assist visualizing. Afterwards, the cells were washed with PBS and then observed with CLSM. The cells were imaged using appropriate excitation and emission filters for each dye. The co-localization efficiency was analyzed with Olympus FV10-ASW software, in which the calculated Pearson's coefficient was 0.90 for TFPy, 0.91 for TFVP, and 0.90 for TPE-TFPy. A stock solution of three AIEgens comprising of 1 μM TFPy, 10 μM TFVP, and 1 μM TPE-TFPy was utilized to incubate with Hela cells, followed by imaging analysis excited with 488 nm filter.
In vitro cellular imaging was carried out to evaluate their subcellular organelle targeting property by confocal laser scanning microscopy (CLSM) using HeLa cell as model cell line. Thanks to the analogous maximum absorption of three AIEgens, fluorescence images can be acquired simultaneously using the same excitation at 488 nm. […] Besides, when HeLa cells were cultured with these three AIEgens simultaneously, all of mitochondria, cell membrane and lysosome were highly emissive (FIG. 3D). It was inferred that the mitochondria-staining behavior of TFPy could be attributed to its high efficiency of electrophoretic transmembrane migration, as well as appropriate binding ability between positively charged pyridinium moiety and the negatively charged interior of the transmembrane potential of mitochondria. The low permeability coefficients resulted from the quite high free energy barrier of TFVP at membrane center could lead to its specific accumulation. In the case of TPE-TFPy, it tends to form nano-sized aggregates in culture media due to the high hydrophobicity, and the in-situ generated aggregates can internalize into lysosome of HeLa cells through endocytosis and specifically light up lysosome upon photoexcitation.

4T1 cells = assay: 4T1 cell imaging / co-localization with commercial organelle probes; format: cell-based; conditions: for organelle towards which strong affinity is exhibited: 4T1 cell line; for Pearson's coefficient (co-localization): 4T1 cells, co-staining with commercial probes
Experimental: Similar co-staining procedure for Hela cell was applied on 4T1 cell. The calculated Pearson's coefficient was 0.90 for TFPy, 0.91 for TFVP, and 0.90 for TPE-TFPy.
Motivated by the excellent targetability and specificity of three diverse organelle-targeting AIEgens, photostability was also carefully investigated as it is an essential parameter to evaluate a fluorescence imaging agent. Photostability assessment was carried out by continuous irradiation and sequential scanning with confocal microscope. […] With HeLa cell imaging and photostability data in hand, additional cellular uptake experiment using 4T1 cell line was performed as preliminary study for in vivo experiment.

λabs [2] [nm] | λem (Soln.) [2] [nm] | ΦF (Aggr.) [2] [%] | ΦF (Soln.) [2] [%] | ΦF (Solid.) [2] [%] | λem (Aggr.) [2] [nm] | Iaggr,max/Isoln [2] | stokes shifts [2] | λem (Solid.) [2] [nm] | ε [2] [M⁻¹ cm⁻¹] | Compound | ROS generation efficacy (decrease of ABDA absorption at 378 nm) [1] | cell viability upon light irradiation (HeLa cell) [%] | subcellular organelle visualized after incubation (HeLa cells) | Pearson's coefficient (co-localization efficiency) (HeLa cells) | organelle towards which strong affinity is exhibited (4T1 cells) | Pearson's coefficient (co-localization) (4T1 cells)
492 | 675 | 5 | 0.4 | 0.6 | 672 | 218 | ca. 200 nm | 690 | 28000 | C[N+](C)(C)CCC[n+]1ccc(C=Cc2ccc(-c3ccc(N(c4ccccc4)c4ccccc4)cc3)o2)cc1.[Br-].[Br-] [TFVP] | better than Ce6, but not as efficient as Rose B angel | 53 | cell membrane | 0.91 | cellular membrane | 0.91
490 | 672 | 4.2 | 0.5 | 1.1 | 664 | 26.4 | ca. 200 nm | 683 | 31000 | C[n+]1ccc(C=Cc2ccc(-c3ccc(N(c4ccccc4)c4ccc(C(=C(c5ccccc5)c5ccccc5)c5ccccc5)cc4)cc3)o2)cc1.F[P-](F)(F)(F)(F)F [TPE-TFPy] | much higher than Rose Bangel | 15 | lyso some | 0.90 | lysosome | 0.90
485 | 686 | 10 | 0.4 | 0.5 | 660 | 12.6 | ca. 200 nm | 672 | 27000 | C[n+]1ccc(C=Cc2ccc(-c3ccc(N(c4ccccc4)c4ccccc4)cc3)o2)cc1.F[P-](F)(F)(F)(F)F [TFPy] | better than Ce6, but not as efficient as Rose B angel | 58 | mitochondria | 0.90 | mitochondria | 0.90

Reference: patent US11866424B2, “Aggregation-induced emission luminogens for photodynamic therapy” (The Hong Kong University of Science and Technology, priority 2020, dated 2024)
